The text below walks through data of patent US12630563B2, “Macrocyclic RIP2-kinase inhibitors” (Oncodesign S.A., priority 2020, dated 2026).

In one series the target is T1, hERG potassium channel (Homo sapiens, UniProt Q12809).
T1 construct: host or cells: HEK (hERG-HEK stably transfected cell line)
As to the kind of experiment: hERG q-patch assay (Assay C, Sophion Qube automated electrophysiology). It counts as cell-based. The following applies: read-out: Assay C: hERG q-patch inhibition IC50. The procedure: hERG q-patch assay protocol: The potential for test compound to inhibit the hERG potassium channel was determined using the Charles River ChanTest® hERG-HEK stably transfected cell line on the Sophion Qube automated electrophysiology platform. The assay was performed at room temperature and recordings of the hERG tail current from a population of cells were made using multi-hole QChips.

Series [1] in a line: Human protein binding free fraction (Assay A, RED plate equilibrium dialysis). The following applies: plasma, read-out: Assay A: Human protein binding free fraction (F %). It counts as in vitro ADME. The procedure:
Human protein binding protocol: Compound was added to plasma or brain homogenate and incubated at 2 μM at 37° C. in the RED plate (Thermo n° 96009, cut-off 8000 Da) against PBS buffer. After 4 h, aliquots of plasma and buffer side were transferred to a well containing acetonitrile with an internal standard. After protein precipitation, samples were centrifuged and supernatant was injected in LC/MS/MS. Standards were prepared in the same matrix and treated as samples.
A fraction unbound (fuplasma) was determined for each plasma sample as follows: […]

Series [2] is described as follows: Human Clint, microsomal metabolic stability (Assay B). Type of series: in vitro ADME. The following applies: pooled liver microsomes 0.5 mg/mL, 0.5 μM compound, NADPH. Here is the method: Human Clint protocol: Pooled liver microsomes (Sekisui Xenotech) were diluted at 0.5 mg/mL in 50 mM phosphate buffer, pH 7.4 then pre-incubated with 0.5 μM […] for 7 min at 37° C. The reactions were initiated by adding prewarmed cofactor (0.44 mM NADPH). Aliquots of samples were taken at 0, 5, 10, 20 and 45 min and the reactions stopped by addition of cold acetonitrile containing an internal standard. Samples were centrifuged at 3000 g for 10 min at 4° C. and then supernatants were analyzed by LC/MS/MS for the amount of parent compound remaining.
For orientation: Liver microsomes are vesicles of endoplasmic reticulum, rich in cytochrome P450 enzymes.

The target of series [3] is T2, recombinant hRIPK2 protein (kinase domain aa 1-299-His-tagged) (Homo sapiens, UniProt O43353).
T2 construct: kinase domain aa 1-299-His-tagged; purchased Life Technologies PR7829A
As to the kind of experiment: RIPK2 AlphaLISA assay (displacement of bead-bound CZC-8004 from hRIPK2). The following applies: recombinant hRIPK2 kinase domain 10 nM, 2 h at 23° C. It counts as binding. The essentials: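 His-tagged kinase domain (10 nM, as diluted) was mixed with compound (0.8% DMSO), acceptor beads bearing the probe CZC-8004 and Ni2+ donor beads. After 2 h at 23 °C, AlphaLISA signal was read. Loss of signal reflects displacement of the probe from RIPK2.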
On the technique in general: In Alpha technology, singlet oxygen from a donor bead excites a nearby acceptor bead.

T1 sequence (Q12809 whole entry): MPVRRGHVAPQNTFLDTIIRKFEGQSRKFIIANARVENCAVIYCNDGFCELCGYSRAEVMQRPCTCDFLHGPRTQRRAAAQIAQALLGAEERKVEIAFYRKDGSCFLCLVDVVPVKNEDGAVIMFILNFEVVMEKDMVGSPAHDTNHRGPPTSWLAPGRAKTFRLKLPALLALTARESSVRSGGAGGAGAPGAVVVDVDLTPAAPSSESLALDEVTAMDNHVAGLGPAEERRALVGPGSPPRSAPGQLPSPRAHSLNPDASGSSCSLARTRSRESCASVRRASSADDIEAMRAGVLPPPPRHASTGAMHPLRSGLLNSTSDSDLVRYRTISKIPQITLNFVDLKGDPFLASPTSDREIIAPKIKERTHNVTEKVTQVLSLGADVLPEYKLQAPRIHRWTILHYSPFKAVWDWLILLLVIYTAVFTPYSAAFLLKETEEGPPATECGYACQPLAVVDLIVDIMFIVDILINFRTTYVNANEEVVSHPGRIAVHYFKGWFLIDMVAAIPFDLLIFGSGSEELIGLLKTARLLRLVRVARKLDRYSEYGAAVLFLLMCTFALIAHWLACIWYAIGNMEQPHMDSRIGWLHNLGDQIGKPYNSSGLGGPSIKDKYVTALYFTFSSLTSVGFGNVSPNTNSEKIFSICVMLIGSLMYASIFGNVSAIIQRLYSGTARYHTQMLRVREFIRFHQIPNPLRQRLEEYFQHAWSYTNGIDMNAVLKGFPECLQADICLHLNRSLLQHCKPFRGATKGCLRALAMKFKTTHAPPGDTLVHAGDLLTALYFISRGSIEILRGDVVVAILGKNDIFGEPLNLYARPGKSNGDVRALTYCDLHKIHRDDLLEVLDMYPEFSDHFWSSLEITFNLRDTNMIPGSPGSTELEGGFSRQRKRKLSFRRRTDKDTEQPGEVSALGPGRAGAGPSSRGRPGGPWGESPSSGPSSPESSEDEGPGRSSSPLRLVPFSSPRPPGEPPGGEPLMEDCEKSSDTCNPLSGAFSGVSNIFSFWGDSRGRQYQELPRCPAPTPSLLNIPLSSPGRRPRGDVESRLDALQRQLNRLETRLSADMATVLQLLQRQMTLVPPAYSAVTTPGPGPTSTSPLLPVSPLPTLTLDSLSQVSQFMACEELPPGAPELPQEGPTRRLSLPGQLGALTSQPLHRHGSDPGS
T2 sequence (O43353 1-299): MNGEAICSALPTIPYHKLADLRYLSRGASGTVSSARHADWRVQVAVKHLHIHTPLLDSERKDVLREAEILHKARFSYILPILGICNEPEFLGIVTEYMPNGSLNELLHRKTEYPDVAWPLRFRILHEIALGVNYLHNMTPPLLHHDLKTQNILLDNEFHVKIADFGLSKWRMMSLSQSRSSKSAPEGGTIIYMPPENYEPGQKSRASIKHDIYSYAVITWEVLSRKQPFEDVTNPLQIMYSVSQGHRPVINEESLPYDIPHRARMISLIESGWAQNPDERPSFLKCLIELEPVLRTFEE

What is called IC50 is the point on the concentration scale where inhibition reaches its midpoint. In the case of `CO[C@@H]1C[C@H]2COc3ccn4ncc(c4n3)-c3cc(cc(C(C)=O)c3)NCCN2C1=O` [Example 54, (12R,14S)-4-acetyl-12-methoxy-16-oxa-7,10,20,21,24-pentaazapentacyclo[15.5.2.1^2,6.0^1°,^14.0^2°,^23]pentacosa-1(23),2,4,6(25),17(24),18,21-heptaen-11-one], the IC50 at hERG potassium channel was greater than 10000 nM; in series [3], less than 10 nM. In addition, the fraction unbound at 4 h, 2 μM in series [1] is greater than 0.01. The “Assay B: Human Clint (hCl)” value in series [2] was “++ (++ indicates hCl between 6-18 ug/min/mg prot)”.
With `CO[C@@H]1C[C@H]2COc3nc4c(cnn4cc3-c3cnn(C)c3)-c3cc(F)cc(c3)NCCN2C1=O` [Example 67, (12R,14S)-4-fluoro-12-methoxy-18-(1-methyl-1H-pyrazol-4-yl)-16-oxa-7,10,20,21,24-pentaazapentacyclo[15.5.2.1^2,6.0^1°,^14.0^2°,^23]pentacosa-1(23),2(25),3,5,17(24), 18,21-heptaen-11-one], the IC50 was greater than 10000 nM at hERG potassium channel and less than 10 nM in series [3]. Besides, in series [2], the “Assay B: Human Clint (hCl)” value is “+++ (+++ indicates hCl equal or below 5 ug/min/mg prot)”.
Turning to `CO[C@@H]1C[C@H]2COc3ccn4ncc(c4n3)-c3cc(F)cc(c3)NCCN2C1=O` [Example 3, (12R,14S)-4-fluoro-12-methoxy-16-oxa-7,10,20,21,24-pentaazapentacyclo[15.5.2.1^2,6.0^10,^14.0^20,^23] pentacosa-1(23),2(25),3,5,17(24),18,21-heptaen-11-one], the half-inhibitory concentration (IC50) at hERG potassium channel is greater than 10000 nM; in series [3], less than 10 nM. The fraction unbound at 4 h, 2 μM in series [1] was greater than 0.01. Also, in series [2], the “Assay B: Human Clint (hCl)” value is given as “++ (++ indicates hCl between 6-18 ug/min/mg prot)”.
The like results for `O=C1[C@H](OCCO)C[C@H]2COc3ccn4ncc(c4n3)-c3cc(F)cc(c3)NCCN12` [Example 79, (12R,14S)-4-fluoro-12-(2-hydroxyethoxy)-16-oxa-7,10,20,21,24-pentaazapentacyclo[15.5.2.1^2,6.0^1°,^14.0^2°,^23]pentacosa-1(23),2(25),3,5,17(24),18,21-heptaen-11-one] were, in that order, 1000 to 10000 nM, less than 10 nM, greater than 0.01 and “+++ (+++ indicates hCl equal or below 5 ug/min/mg prot)”.
